Data from PubChem BioAssay AID1208 (EPA DSSTox, 2008).
Calls of active or inactive are those of the source.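 How the source made its calls: active means at least one rat sex group has a carcinogenic potency value and tumor site recorded; inconclusive means only rat studies were judged inadequate by the national testing program; inactive means no potency or tumor site, with negative rat experiments.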 *1 amine or outer side, *2 acyl side, *3 side chain or, on linkers, in order; H or OH if unused. Where a SMILES comes first, the peptide text is derived from it. Bridges are numbered along the chain shown (N, C = ends). Roman numbers before positions name the chains, in order. [ ]: non-standard residue; d: D form. Actinocin(1to9) = Cc1c2oc3c(C)ccc(C(=O)[*:2])c3nc-2c(C(=O)[*:1])c(N)c1=O; d(aIle) = CC[C@H](C)[C@@H](N)C(=O)O; NMeV = CN[C@H](C(=O)O)C(C)C; Sar = CNCC(=O)O

Test system: rat chronic carcinogenicity bioassay, TD50
Assay: DSSTox (CPDBAS) Carcinogenic Potency Database Summary Rat Bioassay Results
Details: for outcome: TD50_Rat_Note: no positive results; for Potency: hits give low values
Summary of the method: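 The activity score maps log10(1/TD50_Rat_mmol) linearly onto 1–100; actives without a computed TD50, such as mixtures, receive 50. Source data are chronic rat carcinogenicity tests, using the most positive experiment for each sex.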

[1] = TargetSites_Rat_Female: no positive results
[2] = TD50_Rat_Note: TD50 is harmonic mean of more than one positive test, TargetSites_Rat_Female: liver
[3] = TD50_Rat_Note: TD50 is harmonic mean of more than one positive test, TargetSites_Rat_Female: nasal cavity

With `Nc1nc(N)nc(-c2ccccc2)n1` the outcome was “inactive; no positive results”.
With `NNc1nc(-c2ccc(N)cc2)cs1` the Potency (TargetSites_Rat_Female: hematopoietic system, mammary gland) was 1.03 mg/kg/day.
With `O=C1c2cccc(O)c2C(=O)c2c(O)cccc21` the Potency was 245 mg/kg/day.
In the case of `O=c1cc[nH]c(=O)[nH]1`, the Potency (TD50_Rat_Note: TD50 is harmonic mean of more than one positive test, greater than ten-fold variation among TD50 values for positive res, TargetSites_Rat_Female: urinary bladder) is reported as 671 mg/kg/day.
`O=[N+]([O-])c1ccc(-c2nc(N3CCOCC3)c3ccccc3n2)s1` was tested, and the Potency (TargetSites_Rat_Female: all tumor bearing animals) was 5.03 mg/kg/day.
`CCCCCCCCS(=O)C(C)Cc1ccc2c(c1)OCO2` (stereo unspecified) was tested, and the outcome [1] was “inactive; no positive results”.
With `ClC(Cl)(Cl)Cl` the Potency (TD50_Rat_Note: TD50 is harmonic mean of more than one positive test, TargetSites_Rat_Female: liver, mammary gland) was 27.8 mg/kg/day.
`Cl` was tested, and the outcome was “inactive; no positive results” and the outcome [1] was “inactive; no positive results”.
With `CC(=O)O[C@@H]1[C@@H](O)C2OC3C=C(C)C(=O)C(O)[C@@]3(CO)[C@]1(C)[C@]21CO1` (stereo partly specified) the outcome was “inactive; no positive results”.
For `C=C1C(CCl)(CCl)C2(Cl)C(Cl)C(Cl)C1(Cl)C2(Cl)Cl` (stereo unspecified), the outcome [1] was “inactive; no positive results”.
`C=CCN=C=S` was tested, and the Potency [1] was 96 mg/kg/day.
Compound `CC/C(=C(/CC)c1ccc(O)cc1)c1ccc(O)cc1` has a Potency (TD50_Rat_Note: TD50 is harmonic mean of more than one positive test, greater than ten-fold variation among TD50 values for positive res, TargetSites_Rat_Female: liver, pituitary gland) of 0.223 mg/kg/day.
In the case of `Clc1ccc(-c2cccc(Cl)c2Cl)c(Cl)c1`, the Potency (TD50_Rat_Note: TD50 is harmonic mean of more than one positive test, TD50_Rat_mmol was not calculated for this mixture, but Activiity S, TargetSites_Rat_Female: liver) is reported as 11.8 mg/kg/day.
In the case of `CC[C@H](C)[C@H]1NC(=O)[C@@H](NC(=O)c2c3nc4c(C(=O)N[C@@H]5C(=O)N[C@H](C(C)C)C(=O)N6CCC[C@H]6C(=O)N(C)CC(=O)N(C)[C@@H](C(C)C)C(=O)O[C@@H]5C)ccc(C)c4oc-3c(C)c(=O)c2N)[C@@H](C)OC(=O)[C@H](C(C)C)N(C)C(=O)CN(C)C(=O)[C@@H]2CCCN2C1=O` (I: T[d(aIle)]P[Sar][NMeV] / II: T[dV]P[Sar][NMeV]; ester I:1-I:C, II:1-II:C; linker I:N-II:N via Actinocin(1to9)), the outcome is reported as “inactive; no positive results”.
Work on `CCC(Cl)CCC(Cl)C(Cl)CC(Cl)C(Cl)C(Cl)CCl` (stereo unspecified) yielded a Potency (TD50_Rat_Note: TD50 is harmonic mean of more than one positive test, TD50_Rat_mmol was not calculated for this mixture, but Activiity S, TargetSites_Rat_Female: liver, thyroid gland) of 222 mg/kg/day.
With `CC(=O)C(N=Nc1ccc(-c2ccc(N=NC(C(C)=O)C(=O)Nc3ccccc3)c(Cl)c2)cc1Cl)C(=O)Nc1ccccc1` (stereo unspecified) the outcome [1] was “inactive; no positive results”.
`CC(=O)N(C(C)=O)c1cccc2c1Cc1ccccc1-2` was tested, and the Potency (TargetSites_Rat_Female: ear Zymbals gland, mammary gland) was 19 mg/kg/day.
In the case of `N=C1C=CC(=C(c2ccc(N)cc2)c2ccc(N)cc2)C=C1`, the Potency (TD50_Rat_Note: TD50 is harmonic mean of more than one positive test, TargetSites_Rat_Female: ear Zymbals gland, subcutaneous tissue, thyroid gland) is reported as 39.4 mg/kg/day.
`Nc1ccc(N)c(Cl)c1` was tested, and the outcome [1] was “inactive; no positive results”.
In the case of `C1CCNCC1`, the outcome [1] is reported as “inactive; no positive results”.
`O=C([O-])c1cc(N=Nc2ccc(-c3ccc(N=Nc4c(O)ccc(N=Nc5cc(S(=O)(=O)[O-])ccc5[O-])c4[O-])cc3)cc2)ccc1O.[Cu+2].[Na+].[Na+]` showed a Potency (TargetSites_Rat_Female: liver) of 2.07 mg/kg/day.
For `OCCN(CCO)CCO`, the outcome [1] was “inactive; no positive results”.
With `C=CC` the outcome [1] was “inactive; no positive results”.
For `NS(=O)(=O)c1cc2c(cc1Cl)NCNS2(=O)=O`, the outcome [1] was “inactive; no positive results”.
`[N-]=[N+]=CC(=O)OC[C@H](N)C(=O)O` showed a Potency (TD50_Rat_Note: positive test results only by intraperitoneal or intravenous injection, TargetSites_Rat_BothSexes: pancreas) of 0.793 mg/kg/day.
With `CN(C)CCOC(c1ccccc1)c1ccccc1` the outcome [1] was “inactive; no positive results”.
Compound `O=C(O)c1cc(N=Nc2ccc(S(=O)(=O)Nc3ccccn3)cc2)ccc1O` has a Potency (TD50_Rat_Note: TD50 is harmonic mean of more than one positive test, TargetSites_Rat_Female: kidney, urinary bladder) of 1590 mg/kg/day.
`O=[N+]([O-])c1ccc2ncccc2c1` was tested, and the outcome [1] was “inactive; no positive results”.
For `CCCCC(CC)COP(=O)(OCC(CC)CCCC)OCC(CC)CCCC` (stereo unspecified), the outcome [1] was “inactive; no positive results”.
With `O` the outcome [1] was “inactive; no positive results”.
`Cc1ccc(S(=O)(=O)NC(=O)NN2CCCCCC2)cc1` was tested, and the outcome [1] was “inactive; no positive results”.
For `Nc1c(Cl)c(Cl)nc(C(=O)O)c1Cl`, the outcome [1] was “inactive; no positive results”.
With `COc1cc(/C=C/C(=O)CC(=O)/C=C/c2ccc(O)c(OC)c2)ccc1O` the outcome was “inactive; no positive results” and the outcome [1] was “inactive; no positive results”.
`Cn1nc(CO)nc1NCCCOc1cccc(CN2CCCCC2)c1` was tested, and the Potency (TD50_Rat_Note: TD50 is harmonic mean of more than one positive test, TargetSites_Rat_Female: stomach) was 479 mg/kg/day.
`CCn1cc(C(=O)O)c(=O)c2cc3c(cc21)OCO3` gave a Potency [1] of 167 mg/kg/day.
In the case of `O=Nc1ccc(Nc2ccccc2)cc1`, the Potency [1] is reported as 201 mg/kg/day.
With `O=[N+]([O-])c1ccc(Cl)cc1` the outcome was “inactive; no positive results”.
With `O=[N+]([O-])c1ccc(-c2nc(N(CCO)CCO)c3ccccc3n2)s1` the Potency was 3.14 mg/kg/day.
In the case of `O=C(O)COc1ccc(Cl)cc1Cl`, the outcome [1] is reported as “inactive; no positive results”.
With `COC(=O)C1=CCCN(N=O)C1` the outcome was “inactive; no positive results”.
`Cc1ccc2ncccc2c1` was tested, and the outcome [1] was “inactive; no positive results”.
With `N=c1ccn2c(n1)O[C@H]1[C@H](O)[C@@H](CO)O[C@H]12` the outcome [1] was “inactive; no positive results”.
With `Nc1cc(Cl)c(-c2cc(Cl)c(N)cc2Cl)cc1Cl` the outcome [1] was “inactive; no positive results”.
`C=CCN(CCO)N=O` gave a Potency (TargetSites_Rat_Female: liver, nasal cavity) of 0.491 mg/kg/day.
In the case of `C1CCOC1`, the Potency [1] is reported as 407 mg/kg/day.
`O=NN1CCCC1` was tested, and the Potency (TD50_Rat_Note: TD50 is harmonic mean of more than one positive test, harmonic mean of TD50 includes a value for upper 99% confidence li, TargetSites_Rat_Female: liver, vascular system) was 0.799 mg/kg/day.
Compound `ClCCCl` has a Potency (TD50_Rat_Note: TD50 is harmonic mean of more than one positive test, greater than ten-fold variation among TD50 values for positive res, TargetSites_Rat_Female: mammary gland, subcutaneous tissue) of 14.6 mg/kg/day.
Work on `Cn1c(N)nc2ncc(-c3ccccc3)cc21` yielded a Potency (TD50_Rat_Note: TD50 is harmonic mean of more than one positive test, TargetSites_Rat_Female: large intestine, mammary gland) of 1.78 mg/kg/day.
In the case of `CC1(C)S[C@@H]2[C@H](NC(=O)COc3ccccc3)C(=O)N2[C@H]1C(=O)O`, the outcome [1] is reported as “inactive; no positive results”.
With `C=C(F)F` the outcome [1] was “inactive; no positive results”.
`CCOc1ccc(NC(C)=O)cc1` showed a Potency (TD50_Rat_Note: TD50 is harmonic mean of more than one positive test, TargetSites_Rat_Female: ear Zymbals gland, mammary gland, nasal cavity, urinary bladder) of 1250 mg/kg/day.
For `CCOC(=O)CC(SP(=O)(OC)OC)C(=O)OCC` (stereo unspecified), the outcome [1] was “inactive; no positive results”.
In the case of `CC1=NN(c2ccccc2)C(=O)C1`, the outcome [1] is reported as “inactive; no positive results”.
`CCC1C(=O)OCC1Cc1cncn1C` (stereo unspecified) was tested, and the outcome [1] was “inactive; no positive results”.
With `Clc1cc(Cl)cc(-c2cc(Cl)cc(Cl)c2)c1` the outcome [1] was “inactive”.
With `Nc1cc(Cl)cc(C(=O)O)c1Cl` the outcome [1] was “inactive; no positive results”.
Work on `CN(N=O)c1ccc(N=O)cc1` yielded a Potency (TD50_Rat_Note: positive test results only by intraperitoneal or intravenous injection, no positive results are statistically significan) of 1.3 mg/kg/day.
Work on `CC(=O)CN(CCO)N=O` yielded a Potency (TargetSites_Rat_Female: liver) of 1.8 mg/kg/day.
`FC(F)=C(F)F` gave a Potency (TD50_Rat_Note: TD50 is harmonic mean of more than one positive test, TargetSites_Rat_Female: hematopoietic system, kidney, liver, vascular system) of 107 mg/kg/day.
For `COc1ccc(CCN2CCC(Nc3nc4ccccc4n3Cc3ccc(F)cc3)CC2)cc1`, the outcome [1] was “inactive; no positive results”.
With `CN1C(=O)C[C@@H](C(=O)N[C@@H](Cc2cnc[nH]2)C(=O)N2CCC[C@H]2C(N)=O)NC1=O` the outcome [1] was “inactive; no positive results”.
In the case of `COc1ccc(CN(CCN(C)C)c2ccccn2)cc1`, the Potency [2] is reported as 280 mg/kg/day.
`CCNC(=S)NCC` gave a Potency (TD50_Rat_Note: TD50 is harmonic mean of more than one positive test, TargetSites_Rat_Female: thyroid gland) of 24 mg/kg/day.
For `OCCN(CCO)c1nc(-c2cccs2)nc2ccccc12`, the outcome [1] was “inactive”.
For `C=CCN(CC=C)N=O`, the Potency [3] was 33.9 mg/kg/day.
With `CC(=O)CN(C)N=O` the Potency (TD50_Rat_Note: TD50 is harmonic mean of more than one positive test, TargetSites_Rat_Female: esophagus, liver, nasal cavity, oral cavity) was 0.0172 mg/kg/day.
With `CC(Cl)Cl` the outcome [1] was “inactive; no positive results”.
Compound `CN(CCO)N=O` has a Potency of 1.29 mg/kg/day.
For `O=NN(c1ccccc1)c1ccccc1`, the Potency (TD50_Rat_Note: TD50 is harmonic mean of more than one positive test, TargetSites_Rat_Female: urinary bladder) was 167 mg/kg/day.
For `Cc1cc(N=Nc2c(O)ccc3ccccc23)c(S(=O)(=O)O)cc1Cl`, the Potency [1] was 146 mg/kg/day.
For `CCN(Cc1cccc(S(=O)(=O)[O-])c1)c1ccc(C(=C2C=CC(=[N+](C)C)C=C2)c2ccc(N(CC)Cc3cccc(S(=O)(=O)O)c3)cc2)cc1`, the Potency (TD50_Rat_Note: TD50 is harmonic mean of more than one positive test, TargetSites_Rat_Female: mammary gland, skin) was 612 mg/kg/day.
With `COc1ccc(C(=O)Nc2c(Cl)cncc2Cl)cc1OC1CCCC1` the Potency [3] was 1.54 mg/kg/day.
With `Nc1ccc(Oc2ccc(Cl)cc2)cc1` the Potency was 37.6 mg/kg/day.
Work on `CC1CN1P(=O)(N1CC1C)N1CC1C` (stereo unspecified) yielded a Potency of 4.46 mg/kg/day.
For `CN(C)N=Nc1ccccc1`, the Potency (TargetSites_Rat_BothSexes: nervous system) was 2.31 mg/kg/day.
With `C=CCN(N=O)C(N)=O` the Potency (TD50_Rat_Note: TD50 is harmonic mean of more than one positive test, TargetSites_Rat_Female: mammary gland, stomach, uterus) was 0.341 mg/kg/day.
With `CCCCNC(=O)NS(=O)(=O)c1ccc(C)cc1` the outcome [1] was “inactive; no positive results”.
In the case of `Nc1ccc([N+](=O)[O-])cc1`, the outcome [1] is reported as “inactive; no positive results”.
In the case of `Clc1ccccc1Cl`, the outcome [1] is reported as “inactive; no positive results”.
`CN(N=O)c1ccc(/C=C/c2ccnc3ccccc23)cc1` showed a Potency [2] of 0.699 mg/kg/day.
`CCCCC(C)(O)C/C=C/[C@H]1[C@H](O)CC(=O)[C@@H]1CCCCCCC(=O)OC` (stereo partly specified) was tested, and the outcome [1] was “inactive; no positive results”.
`C=C(C)C` gave a Potency [1] of 3550 mg/kg/day.
`C=C(C)[C@H]1Cc2c(ccc3c2O[C@@H]2COc4cc(OC)c(OC)cc4[C@@H]2C3=O)O1` was tested, and the outcome [1] was “inactive; no positive results”.
For `CN(C)CCN(Cc1ccsc1)c1ccccn1`, the outcome [1] was “inactive; no positive results”.
